Measurements as given in patent US5484776A, “Process for the production of stable liquid form of beta-blocker-containing medicaments with controlled release of the active constituent for oral administration” (Synepos Aktiengesellschaft, priority 1993, dated 1996).

Test: Drop size / reproducibility of drops of oral solutions with xanthan gum
Assay type: physicochemical
Conditions: metoprolol 200 mg/ml, sotalol 160 mg/ml, atenolol 50 mg/ml, n = 10
Excerpt: It was found also in this respect that when the concentration of Xanthan Gum was varied in the solution, the scattering of the exact number of drops was higher at both below and above 0.1% than at about this particular concentration (see Table II.).
Using a standard medicine dropper, 10 drops of the medicinal solutions prepared according to Examples 1-11 contain one usual dose of the beta-blocker in a stable form and ensuring reproducible dosage with the required accuracy, the difference by one drop corresponding to a deviation of less than 10%.
Drop size values of different solutions of β-blockers
and xanthan gum as auxiliary material (n = 10,

In the case of COCCc1ccc(OCC(O)CNC(C)C)cc1 (stereo not drawn) [Metoprolol, metoprolol], the “Average Mass of 10 Drops” value (0.001% xanthan gum) is reported as 0.3490 g, the “Average Mass of 10 Drops” value (0.01% xanthan gum) is reported as 0.3446 g and the “Average Mass of 10 Drops” value (0.1% xanthan gum) is reported as 0.3301 g. The “Average Mass of 10 Drops” value (0.25% xanthan gum) was 0.3497 g and the “Average Mass of 10 Drops” value (0.5% xanthan gum) was 0.3559 g.

In the case of CC(C)NCC(O)c1ccc(NS(C)(=O)=O)cc1 (stereo not drawn) [Sotalol, sotalol], the “Average Mass of 10 Drops” value (0.001% xanthan gum) is reported as 0.3805 g, the “Average Mass of 10 Drops” value (0.01% xanthan gum) is reported as 0.4067 g and the “Average Mass of 10 Drops” value (0.1% xanthan gum) is reported as 0.4171 g. For the same molecule, the “Average Mass of 10 Drops” value (0.25% xanthan gum) was 0.4345 g and the “Average Mass of 10 Drops” value (0.5% xanthan gum) was 0.4052 g.

For CC(C)NCC(O)COc1ccc(CC(N)=O)cc1 (stereo not drawn) [Atenolol, atenolol], the “Average Mass of 10 Drops” value (0.001% xanthan gum) was 0.4038 g, the “Average Mass of 10 Drops” value (0.01% xanthan gum) was 0.4094 g and the “Average Mass of 10 Drops” value (0.1% xanthan gum) was 0.4395 g. For the same molecule, the “Average Mass of 10 Drops” value (0.25% xanthan gum) was 0.4604 g and the “Average Mass of 10 Drops” value (0.5% xanthan gum) was 0.4456 g.
